The text below walks through data of patent publication US10130710B2 (priority 2014, dated 2018).

The data set is classed as physicochemical. As to conditions: Log10(concentration in octanol phase/concentration in aqueous phase). The text has this: Incidentally, the octanol-water partition coefficient herein is obtained by adding a target component to be measured into a flask charged with n-octanol and an aqueous buffer of pH 7 or water, shaking the resultant, and performing calculation, in accordance with the following equation, based on active ingredient concentrations in respective phases. Octanol-water partition coefficient=Log10(concentration in octanol phase/concentration in aqueous phase)

Counter-ions that a name gives are not always drawn.

`CCCCCCCCCCCCCC(=O)OC(C)C` [isopropyl myristate] returned a water-octanol partition coefficient of 7.2.

Regarding `CC12CC3CC(C)(C1)CC(N)(C3)C2` [memantine hydrochloride, reference compound], the water-octanol partition coefficient is 0.3.

`CC(C)CCCCCC(=O)OCC(C)(C)COC(=O)CCCCCC(C)C` [neopentyl glycol diisononanoate] came in with a water-octanol partition coefficient of 7.2.

`CC(C)CCCCCCOC(=O)CCCCCC(C)C` [isononyl isononanoate] yielded a water-octanol partition coefficient of 6.5.

Compound `CCCCC(CC)C(=O)OCC(COC(=O)C(CC)CCCC)OC(=O)C(CC)CCCC` (centres unmarked) [triethylhexanoin] registered a water-octanol partition coefficient of 8.9.

As for `CC(C)CCCC(C)CCCC(C)CCCCC(C)CCCC(C)CCCC(C)C` (centres unmarked) [squalane], the water-octanol partition coefficient is on record as 14.7.

`CCCCCCCCCCCCCC(=O)OCC(CCCCCCCC)CCCCCCCCCC` (centres unmarked) [octyldodecyl myristate] registered a water-octanol partition coefficient of 16.0.

Take `O.O.O.O.O.O=P([O-])(O)C(O)(Cc1cccnc1)P(=O)(O)O.O=P([O-])(O)C(O)(Cc1cccnc1)P(=O)(O)O.[Na+].[Na+]` [risedronate monosodium hemipentahydrate, reference compound]: the water-octanol partition coefficient is −5.0.

The compound `CC(C)CCCCCCCCCCOC(=O)CCCCCC(C)C` [isotridecyl isononanoate] gave a water-octanol partition coefficient of 9.2.

In turn, `CCCc1nc(C)c2c(=O)[nH]c(-c3cc(S(=O)(=O)N4CCN(CC)CC4)ccc3OCC)nn12` [verdenafil hydrochloride hydrate, reference compound] registered a water-octanol partition coefficient of 0.0.

In the case of `CC(C)CCCCCCCOC(=O)C(C)(C)C` [isodecyl neopentanoate], the water-octanol partition coefficient turned out to be 5.9.
